Columns and labels:
Assay type in all cases: in vivo
Conditions in all cases: evaluated after 13 days
[1] = system: Ipomoea hederacea (IPOHE); assay: Pre-emergence glasshouse herbicide test
Protocol: (§1) Seeds of a variety of test species are sown in standard soil in pots (Lolium perenne (LOLPE), Amaranthus retoflexus (AMARE), Abutilon theophrasti (ABUTH), Setaria faberi (SETFA), Echinochloa crus-galli (ECHCG), Ipomoea hederacea (IPOHE)). After cultivation for one day (pre-emergence) or after 8 days cultivation (post-emergence) under controlled conditions in a glasshouse (at 24/16° C., day/night; 14 hours light; 65% humidity), the plants are sprayed with an aqueous spray solution derived from the formulation of the technical active ingredient in acetone/water (50:50) solution containing 0.5% Tween™ 20 (polyoxyethelyene sorbitan monolaurate, CAS RN 9005-64-5). Compounds are applied at 125 g/h unless otherwise indicated. The test plants are then grown in a glasshouse under controlled conditions in a glasshouse (at 24/16° C., day/night; 14 hours light; 65% humidity) and watered twice daily. After 13 days for pre- and post-emergence, the test is evaluated for the percentage damage caused to the plant. The biological activities are shown in the following table on a five-point scale (5=80-100%; 4=60-79%; 3=40-59%; 2=20-39%; 1=0-19%).

[2] = system: Abutilon theophrasti (ABUTH); assay: Pre-emergence glasshouse herbicide test
Protocol: as §1

[3] = system: Echinochloa crus-galli (ECHCG); assay: Pre-emergence glasshouse herbicide test
Protocol: as §1

Setaria faberi (SETFA) [4] = assay: Pre-emergence glasshouse herbicide test
Protocol: as §1

[5] = system: Amaranthus retoflexus (AMARE); assay: Pre-emergence glasshouse herbicide test
Protocol: as §1

[6] = system: Ipomoea hederacea (IPOHE); assay: Post-emergence glasshouse herbicide test
Protocol: as §1

[7] = system: Abutilon theophrasti (ABUTH); assay: Post-emergence glasshouse herbicide test
Protocol: as §1

[8] = system: Echinochloa crus-galli (ECHCG); assay: Post-emergence glasshouse herbicide test
Protocol: as §1

Setaria faberi (SETFA) [9] = assay: Post-emergence glasshouse herbicide test
Protocol: as §1

[10] = system: Amaranthus retoflexus (AMARE); assay: Post-emergence glasshouse herbicide test
Protocol: as §1

SMILES	percentage damage caused to the plant, IPOHE ([1]; 125 g/h)	percentage damage caused to the plant, ABUTH ([2]; 125 g/h)	percentage damage caused to the plant, ECHCG ([3]; 125 g/h)	percentage damage caused to the plant, SETFA (Setaria faberi (SETFA) [4]; 125 g/h)	percentage damage caused to the plant, AMARE ([5]; 125 g/h)	percentage damage caused to the plant, IPOHE ([6]; 125 g/h)	percentage damage caused to the plant, ABUTH ([7]; 125 g/h)	percentage damage caused to the plant, ECHCG ([8]; 125 g/h)	percentage damage caused to the plant, SETFA (Setaria faberi (SETFA) [9]; 125 g/h)	percentage damage caused to the plant, AMARE ([10]; 125 g/h)	percentage damage caused to the plant, IPOHE ([1]; *Applied at 250 g/ha)	percentage damage caused to the plant, ABUTH ([2]; *Applied at 250 g/ha)	percentage damage caused to the plant, ECHCG ([3]; *Applied at 250 g/ha)	percentage damage caused to the plant, SETFA (Setaria faberi (SETFA) [4]; *Applied at 250 g/ha)	percentage damage caused to the plant, AMARE ([5]; *Applied at 250 g/ha)	percentage damage caused to the plant, IPOHE ([6]; *Applied at 250 g/ha)	percentage damage caused to the plant, ABUTH ([7]; *Applied at 250 g/ha)	percentage damage caused to the plant, ECHCG ([8]; *Applied at 250 g/ha)	percentage damage caused to the plant, SETFA (Setaria faberi (SETFA) [9]; *Applied at 250 g/ha)	percentage damage caused to the plant, AMARE ([10]; *Applied at 250 g/ha)
CC[S+]([O-])c1c(OC(F)(F)F)ccc(C(=O)Nc2nnnn2C)c1C (stereo not drawn) [Compound 1.023]	5 (5=80-100%)	5 (5=80-100%)	5 (5=80-100%)	5 (5=80-100%)	5 (5=80-100%)	5 (5=80-100%)	5 (5=80-100%)	5 (5=80-100%)	5 (5=80-100%)	5 (5=80-100%)										
CC[S+]([O-])c1c(OC(F)F)ccc(C(=O)Nc2nnnn2C)c1C (stereo not drawn) [Compound 1.029]	4 (4=60-79%)	5 (5=80-100%)	5 (5=80-100%)	5 (5=80-100%)	5 (5=80-100%)	5 (5=80-100%)	5 (5=80-100%)	5 (5=80-100%)	5 (5=80-100%)	5 (5=80-100%)										
CCSc1c(OCC(F)(F)F)ccc(C(=O)Nc2nnnn2C)c1C [Compound 1.038]	2 (2=20-39%)	4 (4=60-79%)	2 (2=20-39%)	2 (2=20-39%)	5 (5=80-100%)	4 (4=60-79%)	5 (5=80-100%)	5 (5=80-100%)	5 (5=80-100%)	5 (5=80-100%)										
CCS(=O)(=O)c1c(OCC(F)(F)F)ccc(C(=O)Nc2nnc(C)o2)c1C [Compound 2.018]	4 (4=60-79%)	5 (5=80-100%)	5 (5=80-100%)	5 (5=80-100%)	5 (5=80-100%)	5 (5=80-100%)	5 (5=80-100%)	5 (5=80-100%)	5 (5=80-100%)	5 (5=80-100%)										
CCn1nnnc1NC(=O)c1ccc(OC(F)(F)F)c(S(=O)(=O)CC)c1Cl [Compound 1.047]	5 (5=80-100%)	5 (5=80-100%)	5 (5=80-100%)	5 (5=80-100%)	5 (5=80-100%)	5 (5=80-100%)	5 (5=80-100%)	5 (5=80-100%)	5 (5=80-100%)	5 (5=80-100%)										
CCS(=O)(=O)c1c(OC(F)F)ccc(C(=O)Nc2nnnn2C)c1C [Compound 1.031]	5 (5=80-100%)	5 (5=80-100%)	5 (5=80-100%)	5 (5=80-100%)	5 (5=80-100%)	5 (5=80-100%)	5 (5=80-100%)	5 (5=80-100%)	5 (5=80-100%)	5 (5=80-100%)										
CCSc1c(OC(F)(F)F)ccc(C(=O)Nc2nnc(C)o2)c1Cl [Compound 2.010]	1 (1=0-19%)	4 (4=60-79%)	5 (5=80-100%)	5 (5=80-100%)	5 (5=80-100%)	4 (4=60-79%)	5 (5=80-100%)	5 (5=80-100%)	5 (5=80-100%)	5 (5=80-100%)										
CC(C)CS(=O)(=O)c1c(OC(F)F)ccc(C(=O)Nc2nnnn2C)c1Cl [Compound 1.052]	5 (5=80-100%)	5 (5=80-100%)	5 (5=80-100%)	5 (5=80-100%)	5 (5=80-100%)	5 (5=80-100%)	5 (5=80-100%)	4 (4=60-79%)	4 (4=60-79%)	4 (4=60-79%)										
CCS(=O)(=O)c1c(OCC(F)(F)F)ccc(C(=O)Nc2nnnn2C)c1Cl [Compound 1.035]	5 (5=80-100%)	5 (5=80-100%)	5 (5=80-100%)	5 (5=80-100%)	5 (5=80-100%)	5 (5=80-100%)	5 (5=80-100%)	5 (5=80-100%)	5 (5=80-100%)	5 (5=80-100%)										
CCS(=O)(=O)c1c(OC(F)F)ccc(C(=O)Nc2nnc(C)o2)c1Cl [Compound 2.013]	4 (4=60-79%)	5 (5=80-100%)	5 (5=80-100%)	5 (5=80-100%)	5 (5=80-100%)	4 (4=60-79%)	5 (5=80-100%)	5 (5=80-100%)	5 (5=80-100%)	5 (5=80-100%)										
CCS(=O)(=O)c1cc(C(=O)Nc2nnnn2C)ccc1OC(F)F [Compound 1.025]	4 (4=60-79%)	5 (5=80-100%)	5 (5=80-100%)	5 (5=80-100%)	5 (5=80-100%)	5 (5=80-100%)	5 (5=80-100%)	5 (5=80-100%)	5 (5=80-100%)	5 (5=80-100%)										
CSc1c(OC(F)(F)F)ccc(C(=O)Nc2nnc(C)o2)c1Cl [Compound 2.006]											1 (1=0-19%)	2 (2=20-39%)	1 (1=0-19%)	1 (1=0-19%)	5 (5=80-100%)	5 (5=80-100%)	5 (5=80-100%)	5 (5=80-100%)	5 (5=80-100%)	5 (5=80-100%)
